Numbers after ± are expanded uncertainties.
What was measured:
[1] = 101.3 kPa, Crystal, Hot wire method
[2] = wn = mass fraction of the nth substance listed; conditions: 101 kPa, Crystal, Hot wire method

CC(C)(CO)CO [2,2-dimethyl-1,3-propanediol]
thermal conductivity ([1]; 323 K): 0.4 ± 0.01 W/m/K | thermal conductivity ([1]; 333 K): 0.38 ± 0.01 W/m/K | thermal conductivity ([1]; 343 K): 0.36 ± 0.01 W/m/K | thermal conductivity ([1]; 353 K): 0.33 ± 0.01 W/m/K | thermal conductivity ([1]; 363 K): 0.32 ± 0.01 W/m/K | thermal conductivity ([1]; 373 K): 0.29 ± 0.01 W/m/K | thermal conductivity ([1]; 383 K): 0.3 ± 0.01 W/m/K | thermal conductivity ([1]; 393 K): 0.31 ± 0.01 W/m/K

CC(C)(CO)CO [2,2-dimethyl-1,3-propanediol] + CC1(C)[C@@H]2CC[C@@]1(C)C(=O)C2
thermal conductivity ([2]; 298 K, w2 = 0.7): 0.35 ± 0.01 W/m/K | thermal conductivity ([2]; 303 K, w2 = 0.03): 0.38 ± 0.01 W/m/K | thermal conductivity ([2]; 303 K, w2 = 0.3): 0.37 ± 0.01 W/m/K | thermal conductivity ([2]; 303 K, w2 = 0.7): 0.34 ± 0.01 W/m/K | thermal conductivity ([2]; 303 K, w2 = 0.96): 0.3 ± 0.01 W/m/K | thermal conductivity ([2]; 308 K, w2 = 0.3): 0.36 ± 0.01 W/m/K | thermal conductivity ([2]; 308 K, w2 = 0.7): 0.34 ± 0.01 W/m/K | thermal conductivity ([2]; 313 K, w2 = 0.03): 0.37 ± 0.01 W/m/K | thermal conductivity ([2]; 313 K, w2 = 0.3): 0.35 ± 0.01 W/m/K | thermal conductivity ([2]; 313 K, w2 = 0.7): 0.33 ± 0.01 W/m/K | thermal conductivity ([2]; 313 K, w2 = 0.96): 0.3 ± 0.01 W/m/K | thermal conductivity ([2]; 315 K, w2 = 0.7): 0.33 ± 0.01 W/m/K | thermal conductivity ([2]; 317 K, w2 = 0.7): 0.33 ± 0.01 W/m/K | thermal conductivity ([2]; 318 K, w2 = 0.3): 0.34 ± 0.01 W/m/K | thermal conductivity ([2]; 319 K, w2 = 0.7): 0.32 ± 0.01 W/m/K | thermal conductivity ([2]; 321 K, w2 = 0.7): 0.32 ± 0.01 W/m/K | thermal conductivity ([2]; 323 K, w2 = 0): 0.4 ± 0.01 W/m/K | thermal conductivity ([2]; 323 K, w2 = 0.03): 0.36 ± 0.01 W/m/K | thermal conductivity ([2]; 323 K, w2 = 0.3): 0.33 ± 0.01 W/m/K | thermal conductivity ([2]; 323 K, w2 = 0.7): 0.32 ± 0.01 W/m/K | thermal conductivity ([2]; 323 K, w2 = 0.96): 0.3 ± 0.01 W/m/K | thermal conductivity ([2]; 325 K, w2 = 0.7): 0.31 ± 0.01 W/m/K | thermal conductivity ([2]; 328 K, w2 = 0.3): 0.32 ± 0.01 W/m/K | thermal conductivity ([2]; 328 K, w2 = 0.7): 0.31 ± 0.01 W/m/K | thermal conductivity ([2]; 333 K, w2 = 0): 0.38 ± 0.01 W/m/K | thermal conductivity ([2]; 333 K, w2 = 0.03): 0.35 ± 0.01 W/m/K | thermal conductivity ([2]; 333 K, w2 = 0.3): 0.31 ± 0.01 W/m/K | thermal conductivity ([2]; 333 K, w2 = 0.7): 0.31 ± 0.01 W/m/K | thermal conductivity ([2]; 333 K, w2 = 0.96): 0.29 ± 0.01 W/m/K | thermal conductivity ([2]; 338 K, w2 = 0.7): 0.31 ± 0.01 W/m/K | thermal conductivity ([2]; 343 K, w2 = 0): 0.36 ± 0.01 W/m/K | thermal conductivity ([2]; 343 K, w2 = 0.03): 0.34 ± 0.01 W/m/K | thermal conductivity ([2]; 343 K, w2 = 0.7): 0.31 ± 0.01 W/m/K | thermal conductivity ([2]; 343 K, w2 = 0.96): 0.29 ± 0.01 W/m/K | thermal conductivity ([2]; 348 K, w2 = 0.7): 0.3 ± 0.01 W/m/K | thermal conductivity ([2]; 353 K, w2 = 0): 0.33 ± 0.01 W/m/K | thermal conductivity ([2]; 353 K, w2 = 0.03): 0.32 ± 0.01 W/m/K | thermal conductivity ([2]; 353 K, w2 = 0.7): 0.3 ± 0.01 W/m/K | thermal conductivity ([2]; 353 K, w2 = 0.96): 0.29 ± 0.01 W/m/K | thermal conductivity ([2]; 358 K, w2 = 0.7): 0.29 ± 0.01 W/m/K | thermal conductivity ([2]; 363 K, w2 = 0): 0.32 ± 0.01 W/m/K | thermal conductivity ([2]; 363 K, w2 = 0.7): 0.28 ± 0.01 W/m/K | thermal conductivity ([2]; 363 K, w2 = 0.96): 0.28 ± 0.01 W/m/K | thermal conductivity ([2]; 373 K, w2 = 0): 0.29 ± 0.01 W/m/K | thermal conductivity ([2]; 373 K, w2 = 0.96): 0.28 ± 0.01 W/m/K | thermal conductivity ([2]; 383 K, w2 = 0): 0.3 ± 0.01 W/m/K | thermal conductivity ([2]; 383 K, w2 = 0.96): 0.28 ± 0.01 W/m/K | thermal conductivity ([2]; 393 K, w2 = 0): 0.31 ± 0.01 W/m/K | thermal conductivity ([2]; 393 K, w2 = 0.96): 0.27 ± 0.01 W/m/K | thermal conductivity ([2]; 403 K, w2 = 0.96): 0.27 ± 0.01 W/m/K | thermal conductivity ([2]; 413 K, w2 = 0.96): 0.26 ± 0.01 W/m/K | thermal conductivity ([2]; 423 K, w2 = 0.96): 0.26 ± 0.01 W/m/K | thermal conductivity ([2]; 433 K, w2 = 0.96): 0.25 ± 0.01 W/m/K

— the NIST ThermoML archive (doi:10.1016/j.tca.2011.12.021)
